In patent US9663536B2, “Inhibitors of human immunodeficiency virus replication” (priority 2013, dated 2017):

Tested on: recombinant NL-Rluc virus
Experiment: Inhibition of HIV replication (NL-Rluc virus in MT-2 cells, luciferase readout)
Assay type: cell-based
Settings: Human immunodeficiency virus 1, MT2, 120 h

For `Cc1nc2cc3nn2c(c1[C@H](OC(C)(C)C)C(=O)O)N1CCC(C)(CC1)OC/C=C/CCOc1ccccc1Cc1cnc-3s1` [Example 8, (2S)-2-(tert-Butoxy)-2-[(24E)-4,28-dimethyl-21,27-dioxa-33-thia-1,5,7,8,11-pentaazahexacyclo[26.2.2.1^6,9.1^10,13.0^2,7.0^15,20]tetratriaconta-2,4,6(34),8,10,12,15(20),16,18,24-decaen-3-yl]acetic Acid], which EC50 is on record?
Its EC50 is 8 nM.

Which EC50 does the source give for `Cc1nc2cc3nn2c(c1[C@H](OC(C)(C)C)C(=O)O)N1CCC(C)(CC1)OCCCCCOc1ccccc1Cc1cnc-3s1` [Example 9, (2S)-2-(tert-Butoxy)-2-{4,28-dimethyl-21,27-dioxa-33-thia-1,5,7,8,11-pentaazahexacyclo[26.2.2.1^6,9.1^10,13.0^2,7.0^15,20]tetratriaconta-2,4,6(34),8,10,12,15(20),16,18-nonaen-3-yl}acetic acid] here?
The EC50 was 2 nM.

For `Cc1nc2cc3nn2c(c1[C@H](OC(C)(C)C)C(=O)O)N1CCC(C)(CC1)OC/C=C/COc1ccccc1Cc1cnc-3o1` [Example 10, (2S)-2-(tert-Butoxy)-2-[(23E)-4,27-dimethyl-21,26,32-trioxa-1,5,7,8,11-pentaazahexacyclo[25.2.2.1^6,9.1^10,13.0^2,7.0^15,20]tritriaconta-2,4,6(33),8,10,12,15 (20),16,18,23-decaen-3-yl]acetic acid], which EC50 is on record?
Its EC50 is 2 nM.

For `Cc1nc2cc3nn2c(c1[C@H](OC(C)(C)C)C(=O)O)N1CCC(C)(CC1)OCCCC[C@@H](C)Oc1ccccc1Cc1cnc-3s1` [Example 11], which EC50 is on record?
The EC50 was 3 nM.

With `Cc1nc2cc3nn2c(c1[C@H](OC(C)(C)C)C(=O)O)N1CCC(C)(/C=C/C=C/CCc2ccccc2Cc2cnc-3s2)CC1` [Example 12, (2S)-2-(tert-Butoxy)-2-[(23E,25E)-4,27-dimethyl-32-thia-1,5,7,8,11-pentaazahexacyclo[25.2.2.1^6,9.1^10,13.0^2,7.0^15,20]tritriaconta-2,4,6(33),8,10,12,15(20),16,18,23,25-undecaen-3-yl]acetic acid] as the molecule, how does the EC50 read?
The EC50 was 8 nM.

`Cc1nc2cc3nn2c(c1[C@H](OC(C)(C)C)C(=O)O)N1CCC(C)(/C=C/CCCCc2ccccc2Cc2cnc-3s2)CC1` [Example 13, (2S)-2-(tert-Butoxy)-2-[(25E)-4,27-dimethyl-32-thia-1,5,7,8,11-pentaazahexacyclo[25.2.2.1^6,9.1^10,13.0^2,7.0^15,20]tritriaconta-2,4,6(33),8,10,12,15(20),16,18,25-decaen-3-yl]acetic acid] was tested. Which EC50 did it give?
Its EC50 is 12 nM.

How did the EC50 turn out when `Cc1nc2cc3nn2c(c1[C@H](OC(C)(C)C)C(=O)O)N1CCC(C)(CCCCCCc2ccccc2Cc2cnc-3s2)CC1` [Example 14, (2S)-2-(tert-Butoxy)-2-{4,27-dimethyl-32-thia-1,5,7,8,11-pentaazahexacyclo[25.2.2.1^6,9.1^10,13.0^2,7.0^15,20]tritriaconta-2,4,6(33),8,10,12,15(20),16,18-nonaen-3-yl}acetic acid] was run?
The EC50 was 41 nM.

For `Cc1nc2cc3nn2c(c1[C@H](OC(C)(C)C)C(=O)O)N1CCC(C)(CC/C=C/C[C@@H](C)Oc2cc(F)ccc2Cc2cnc-3s2)CC1` [Example 19, (2S)-2-(tert-Butoxy)-2-[(22R,24E)-18-fluoro-4,22,28-trimethyl-21-oxa-33-thia-1,5,7,8,11-pentaazahexacyclo[26.2.2.1^6,9.1^10,13.0^2,7.0^15,20]tetratriaconta-2,4,6(34),8,10,12,15(20),16,18,24-decaen-3-yl]acetic acid], which EC50 is on record?
The EC50 was 17 nM.

For `Cc1nc2cc3nn2c(c1[C@H](OC(C)(C)C)C(=O)O)N1CCC(C)(CC/C=C\C[C@@H](C)Oc2cc(F)ccc2Cc2cnc-3s2)CC1` [Example 20, (2S)-2-(tert-Butoxy)-2-[(22R,24Z)-18-fluoro-4,22,28-trimethyl-21-oxa-33-thia-1,5,7,8,11-pentaazahexacyclo[26.2.2.1^6,9.1^10,13.0^2,7.0^15,20]tetratriaconta-2,4,6(34),8,10,12,15(20),16,18,24-decaen-3-yl]acetic acid], which EC50 is on record?
The EC50 was 32 nM.

With `Cc1nc2cc3nn2c(c1[C@H](OC(C)(C)C)C(=O)O)N1CCC(C)(CC/C=C/COc2ccccc2Cc2cnc-3s2)CC1` [Example 24, (2S)-2-(tert-Butoxy)-2-[(23E)-4,27-dimethyl-21-oxa-32-thia-1,5,7,8,11-pentaazahexacyclo[25.2.2.1^6,9.1^10,13.0^2,7.0^15,20]tritriaconta-2,4,6(33),8,10,12,15(20),16,18,23-decaen-3-yl]acetic Acid] as the molecule, how does the EC50 read?
The EC50 was 11 nM.

Which EC50 does the source give for `Cc1nc2cc3nn2c(c1[C@H](OC(C)(C)C)C(=O)O)N1CCC(C)(CC1)OCCCCOc1ccccc1Cc1cnn-3c1` [Example 25, (2S)-2-(tert-Butoxy)-2-{4,27-dimethyl-21,26-dioxa-1,5,7,8,10,11-hexaazahexacyclo[25.2.2.1^6,9.1^10,13.0^2,7.0^15,20]tritriaconta-2,4,6(33),8,11,13(32),15(20),16,18-nonaen-3-yl}acetic acid] here?
The EC50 was 5 nM.

With `Cc1nc2cc3nn2c(c1[C@H](OC(C)(C)C)C(=O)O)N1CCC(C)(CC1)OC/C=C/COc1ccccc1Cc1cnn-3c1` [Example 26, (2S)-2-(tert-Butoxy)-2-[(23E)-4,27-dimethyl-21,26-dioxa-1,5,7,8,10,11-hexaazahexacyclo[25.2.2.1^6,9.1^10,13.0^2,7.0^15,20]tritriaconta-2,4,6(33),8,11,13(32),15(20),16,18,23-decaen-3-yl]acetic acid] as the molecule, how does the EC50 read?
The EC50 was 2 nM.

For `Cc1nc2cc3nn2c(c1[C@H](OC(C)(C)C)C(=O)O)N1CCC(C)(CC1)OC/C=C/COc1c(F)cccc1Cc1cnn-3c1` [Example 27, (2S)-2-(tert-Butoxy)-2-[(23E)-19-fluoro-4,27-dimethyl-21,26-dioxa-1,5,7,8,10,11-hexaazahexacyclo[25.2.2.1^6,9.1^10,13.0^2,7.0^15,20]tritriaconta-2,4,6(33),8,11,13(32),15(20),16,18,23-decaen-3-yl]acetic acid], which EC50 is on record?
Its EC50 is 48 nM.

With `Cc1nc2cc3nn2c(c1[C@H](OC(C)(C)C)C(=O)O)N1CCC(C)(CC1)OCCCCOc1c(F)cccc1Cc1cnn-3c1` [Example 28, (2S)-2-(tert-Butoxy)-2-{19-fluoro-4,27-dimethyl-21,26-dioxa-1,5,7,8,10,11-hexaazahexacyclo[25.2.2.1^6,9.1^10,13.0^2,7.0^15,20]tritriaconta-2,4,6(33),8,11,13(32),15(20),16,18-nonaen-3-yl}acetic acid] as the molecule, how does the EC50 read?
Its EC50 is 11 nM.

`Cc1nc2cc3nn2c(c1[C@H](OC(C)(C)C)C(=O)O)N1CCC(C)(CC1)OC/C=C/COc1ccc(F)cc1Cc1cnn-3c1` [Example 29, (2S)-2-(tert-Butoxy)-2-[(23E)-17-fluoro-4,27-dimethyl-21,26-dioxa-1,5,7,8,10,11-hexaazahexacyclo[25.2.2.1^6,9.1^10,13.0^2,7.0^15,20]tritriaconta-2,4,6(33),8,11,13(32),15(20),16,18,23-decaen-3-yl]acetic acid] was tested. Which EC50 did it give?
The EC50 was 2 nM.

With `Cc1nc2cc3nn2c(c1[C@H](OC(C)(C)C)C(=O)O)N1CCC(C)(CC1)OCCCCOc1ccc(F)cc1Cc1cnn-3c1` [Example 30, (2S)-2-(tert-Butoxy)-2-{17-fluoro-4,27-dimethyl-21,26-dioxa-1,5,7,8,10,11-hexaazahexacyclo[25.2.2.1^6,9.1^10,13.0^2,7.0^15,20]tritriaconta-2,4,6(33),8,11,13(32),15(20),16,18-nonaen-3-yl}acetic acid] as the molecule, how does the EC50 read?
Its EC50 is 2 nM.

With `Cc1nc2cc3nn2c(c1[C@H](OC(C)(C)C)C(=O)O)N1CCC(C)(CC1)OC/C=C/CCOc1ccccc1Cc1cnn-3c1` [Example 31, (2S)-2-(tert-Butoxy)-2-[(24E)-4,28-dimethyl-21,27-dioxa-1,5,7,8,10,11-hexaazahexacyclo[26.2.2.1^6,9.1^10,13.0^2,7.0^15,20]tetratriaconta-2,4,6(34),8,11,13(33),15(20),16,18,24-decaen-3-yl]acetic acid] as the molecule, how does the EC50 read?
Its EC50 is 2 nM.

For `Cc1nc2cc3nn2c(c1[C@H](OC(C)(C)C)C(=O)O)N1CCC(C)(CC1)OC/C=C\CCOc1ccccc1Cc1cnn-3c1` [Example 32, (2S)-2-(tert-butoxy)-2-[(24Z)-4,28-dimethyl-21,27-dioxa-1,5,7,8,10,11-hexaazahexacyclo[26.2.2.1^6,9.1^10,13.0^2,7.0^15,20]tetratriaconta-2,4,6(34),8,11,13(33),15(20),16,18,24-decaen-3-yl]acetic acid], which EC50 is on record?
Its EC50 is 6 nM.

For `Cc1nc2cc3nn2c(c1[C@H](OC(C)(C)C)C(=O)O)N1CCC(C)(CC1)OCCCCCOc1ccccc1Cc1cnn-3c1` [Example 33, (2S)-2-(tert-Butoxy)-2-{4,28-dimethyl-21,27-dioxa-1,5,7,8,10,11-hexaazahexacyclo[26.2.2.1^6,9.1^10,13.0^2,7.1^15,20]tetratriaconta-2,4,6(34),8,11,13 (33), 15 (20), 16,18-nonaen-3-yl}acetic acid], which EC50 is on record?
The EC50 was 2 nM.

With `Cc1nc2cc3nn2c(c1[C@H](OC(C)(C)C)C(=O)O)N1CCC(C)(CC/C=C/CCOc2ccccc2Cc2cnn-3c2)CC1` [Example 34, (2S)-2-(tert-Butoxy)-2-[(24E)-4,28-dimethyl-21-oxa-1,5,7,8,10,11-hexaazahexacyclo[26.2.2.1^6,9.1^10,13.0^2,7.0^15,20]tetratriaconta-2,4,6(34),8,11,13(33),15(20),16,18,24-decaen-3-yl]acetic acid] as the molecule, how does the EC50 read?
Its EC50 is 8 nM.

`Cc1nc2cc3nn2c(c1[C@H](OC(C)(C)C)C(=O)O)N1CCC(C)(CC/C=C\CCOc2ccccc2Cc2cnn-3c2)CC1` [Example 35, (2S)-2-(tert-Butoxy)-2-[(24Z)-4,28-dimethyl-21-oxa-1,5,7,8,10,11-hexaazahexacyclo[26.2.2.1^6,9.1^10,13.0^2,7.0^15,20]tetratriaconta-2,4,6(34),8,11,13(33),15(20),16,18,24-decaen-3-yl]acetic acid] was tested. Which EC50 did it give?
The EC50 was 20 nM.

For `Cc1nc2cc3nn2c(c1[C@H](OC(C)(C)C)C(=O)O)N1CCC(C)(CCCCCCOc2ccccc2Cc2cnn-3c2)CC1` [Example 36, (2S)-2-(tert-Butoxy)-2-{4,28-dimethyl-21-oxa-1,5,7,8,10,11-hexaazahexacyclo[26.2.2.1^6,9.1^10,13.0^2,7.0^15,20]tetratriaconta-2,4,6(34),8,11,13(33),15(20),16,18-nonaen-3-yl}acetic acid], which EC50 is on record?
The EC50 was 14 nM.

With `Cc1nc2cc3nn2c(c1[C@H](OC(C)(C)C)C(=O)O)N1CCC(C)(CC/C=C/COc2cccc(c2)Cc2cnn-3c2)CC1` [Example 37] as the molecule, how does the EC50 read?
The EC50 was 3 nM.

For `Cc1nc2cc3nn2c(c1[C@H](OC(C)(C)C)C(=O)O)N1CCC(C)(CC/C=C\COc2cccc(c2)Cc2cnn-3c2)CC1` [Example 38], which EC50 is on record?
The EC50 was 22 nM.
